ChEMBL document CHEMBL4196009, “Novel vitexin-inspired scaffold against leukemia” (Eur J Med Chem, 2018)

Columns and labels:
SUP-B15 = test: Antiproliferative activity against human SUP-B15 cells after 72 hrs by CelTiter-Glo assay; format: functional, cell-based; conditions: SUP-B15, 72 h
BJ = test: Antiproliferative activity against human BJ cells after 72 hrs by CelTiter-Glo assay; format: cell-based
KOPN-8 = test: Antiproliferative activity against human KOPN8 cells after 72 hrs by CelTiter-Glo assay; format: functional, cell-based; conditions: KOPN-8, 72 h
HepG2 = test: Antiproliferative activity against human HepG2 cells after 72 hrs by CelTiter-Glo assay; format: functional, cell-based; conditions: HepG2, 72 h

| Structure (SMILES) | EC50 (HepG2) [µM] | EC50 (SUP-B15) [µM] | EC50 (BJ) [µM] | EC50 (KOPN-8) [µM] |
| --- | --- | --- | --- | --- |
| COc1ccc(-c2cc(=O)c3c(OC)cc(OC)cc3n2S(=O)(=O)c2ccc(OC)cc2)cc1 | > 82.8 | > 82.8 | > 82.8 | > 82.8 |
| COc1ccc(-c2cc(=O)c3c(OC)cc(OC)cc3n2S(=O)(=O)c2cccc(Br)c2)cc1 | > 58.6 | > 58.6 | > 58.6 | > 58.6 |
| O=c1cc(-c2ccccc2)oc2cc(O)c(O)c(O)c12 [BAICALEIN] | 60 | 103 | > 86.2 | 16 |
| COc1ccc(-c2c(Cl)c(=O)c3c(OC)cc(OC)cc3n2S(=O)(=O)c2ccc(OC)cc2)cc1 |  | 17.9 | 90 | 19.1 |
| COc1cc(OC)c2c(=O)cc(C(=O)Nc3ccccc3S(C)(=O)=O)[nH]c2c1 | > 39.7 | > 39.7 | > 39.7 | > 39.7 |
| COc1ccc(-c2cc(=O)c3c(OC)cc(OC)cc3n2S(=O)(=O)c2cc(Cl)cc(Cl)c2O)cc1 | > 37.9 | > 37.9 | > 37.9 | > 37.9 |
| COc1ccc(-c2cc(=O)c3c(OC)cc(OC)cc3n2S(=O)(=O)Cc2ccccc2)cc1 | > 34.5 | > 34.5 | > 34.5 | > 34.5 |
| COc1cc(OC)c2c(=O)cc(C(=O)Nc3ccc(C4CCCCC4)cc3)[nH]c2c1 | > 43.1 | > 43.1 | 36.2 | 18.4 |
| COc1ccc(-c2cc(=O)c3c(OC)cc(OC)cc3n2S(=O)(=O)c2cccc([N+](=O)[O-])c2)cc1 | > 39.7 | > 39.7 | > 39.7 | > 39.7 |
| COc1ccc(-c2cc(=O)c3c(OC)cc(OC)cc3n2S(=O)(=O)c2c(C(C)C)cc(C(C)C)cc2C(C)C)cc1 | > 341 | 43.3 | > 341 | > 341 |
| COc1cc(OC)c2c(=O)cc(C(=O)Nc3ccc(N4CCOCC4)cc3)[nH]c2c1 | > 36.8 | > 36.8 | > 36.8 | > 36.8 |
| COc1ccc(-c2cc(=O)c3c(OC)cc(OC)cc3n2S(=O)(=O)c2ccc(Br)cc2)cc1 | 16.3 | 63.8 | > 86.2 | > 86.2 |
| COc1ccc(-c2cc(=O)c3c(OC)cc(OC)cc3n2S(=O)(=O)c2ccc([N+](=O)[O-])cc2)cc1 | > 29.3 | 17.1 | > 29.3 | 17.3 |
| COc1ccc(-c2cc(=O)c3c(OC)cc(OC)cc3n2S(=O)(=O)c2ccc(C)c([N+](=O)[O-])c2)cc1 | > 51.7 | > 51.7 | > 51.7 | > 51.7 |

Second part, led by results:

| EC50 (HepG2) [µM] | Structure (SMILES) | EC50 (SUP-B15) [µM] | EC50 (BJ) [µM] | EC50 (KOPN-8) [µM] |
| --- | --- | --- | --- | --- |
| > 70.7 | COc1cc(OC)c2c(=O)cc(C(=O)Nc3ccc(S(=O)(=O)c4ccccc4)cc3)[nH]c2c1 | > 70.7 | > 70.7 | > 70.7 |
| > 48.3 | COc1ccc(-c2cc(=O)c3c(OC)cc(OC)cc3n2S(=O)(=O)c2ccc(Br)s2)cc1 | > 48.3 | > 48.3 | > 48.3 |
| > 86.2 | COc1ccc(-c2[nH]c3cc(OC)cc(OC)c3c(=O)c2I)cc1 | > 86.2 | > 86.2 | 49.4 |
| > 44.8 | COc1ccc(-c2cc(=O)c3c(OC)cc(OC)cc3n2S(=O)(=O)c2ccc(C)cc2)cc1 | > 44.8 | > 44.8 | > 44.8 |
| > 34.5 | COc1ccc(-c2cc(=O)c3c(OC)cc(OC)cc3n2S(=O)(=O)c2ccc(C=O)cc2)cc1 | > 34.5 | > 34.5 | > 34.5 |
| > 65.5 | COc1ccc(-c2cc(=O)c3c(OC)cc(OC)cc3n2S(=O)(=O)c2cc(F)c(F)c(F)c2)cc1 | > 65.5 | > 65.5 | > 65.5 |
| > 34.5 | COc1ccc(-c2cc(=O)c3c(OC)cc(OC)cc3n2S(=O)(=O)c2ccc(Cl)cc2)cc1 | > 34.5 | > 34.5 | > 34.5 |
